From paper PMC11003479, “Inhibition of pathogenic bacterial carbonic anhydrases by monothiocarbamates” (Journal of Enzyme Inhibition and Medicinal Chemistry, 2023)

Key:
[1] = biological target: T1, α-NgCA (Neisseria gonorrhoeae, UniProt Q50940); assay: biochemical; design: stopped-flow CO2 hydration assay of recombinant carbonic anhydrases, pH 7.4 (alpha) or 8.3 (gamma), KI
T1 construct: gene cah
T1 sequence (Q50940 27-252): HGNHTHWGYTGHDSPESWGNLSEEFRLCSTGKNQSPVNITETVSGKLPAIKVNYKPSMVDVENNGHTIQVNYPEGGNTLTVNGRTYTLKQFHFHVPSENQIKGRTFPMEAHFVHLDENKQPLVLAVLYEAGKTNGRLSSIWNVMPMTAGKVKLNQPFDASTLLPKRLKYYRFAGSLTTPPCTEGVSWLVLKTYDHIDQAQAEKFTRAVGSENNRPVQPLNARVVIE
Experimental: (§1) The experiments were performed at the pH of 7.4 for the α-class enzymes, and the pH of 8.3 for the γ-CA, as reported earlier[15]^,[16]. The bacterial enzymes were recombinant proteins obtained as reported earlier by our group[15]^,[16].

[2] = biological target: T2, α-EfCA (Enterococcus faecium, UniProt Q3XYE8); assay: biochemical; design: stopped-flow CO2 hydration assay of recombinant carbonic anhydrases, pH 7.4 (alpha) or 8.3 (gamma), KI
T2 construct: gene HMPREF0351_11360
T2 sequence (Q3XYE8 1-234): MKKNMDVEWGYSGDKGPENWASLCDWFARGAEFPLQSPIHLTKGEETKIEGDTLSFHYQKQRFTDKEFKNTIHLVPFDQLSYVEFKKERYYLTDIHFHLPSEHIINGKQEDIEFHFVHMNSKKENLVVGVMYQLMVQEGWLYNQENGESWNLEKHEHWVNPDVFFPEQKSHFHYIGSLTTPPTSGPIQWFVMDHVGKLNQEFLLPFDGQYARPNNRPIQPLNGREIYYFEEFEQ
Experimental: as §1

[3] = biological target: T2, α-EfCA; assay: stopped-flow CO2 hydrase assay; type: biochemical
[4] = biological target: T1, α-NgCA; assay: stopped-flow CO2 hydrase assay; type: biochemical
[5] = biological target: γ-EfCA; assay: stopped-flow CO2 hydrase assay; type: biochemical, Enterococcus faecium; conditions: CO2 hydration, pH 8.3

| Structure (SMILES) | Ki [1] | Ki [2] | Ki [3] | Ki [4] | Ki [5] |
| --- | --- | --- | --- | --- | --- |
| CCOC(=O)CN(C)C(=O)S [compound 7] | 919 nM | 788 nM |  |  |  |
| COc1ccc(CCNC(=O)S)cc1OC [compound 12, MTC 12] |  |  | 0.357 µM | 0.512 µM | 0.358 µM |
| CCCCN(CC)C(=O)S [compound 10] | 766 nM | 806 nM |  |  |  |
| CN1CCN(C(=O)S)CC1 [compound 6] | 729 nM | 959 nM |  |  |  |
| CN(Cc1ccccc1)C(=O)S [compound 8] | 843 nM | 686 nM |  |  |  |
| O=C(S)N1CCN(C(=O)S)CC1 [compound 11] | 630 nM | 915 nM |  |  |  |
| O=C(CN1CCN(C(=O)S)CC1)NC1CCCCC1 [compound 5, MTC 5] |  |  | 0.29 µM | 0.395 µM | 0.417 µM |
| O=C(S)NCCc1ccccc1 [compound 9] | 648 nM |  |  |  |  |
| O=C(S)N1CCN(c2ccc(C(F)(F)F)cc2)CC1 [compound 13, MTC 13] |  |  | 0.477 µM | 0.394 µM | 0.334 µM |
| O=C(S)N1CCOCC1 [compound 1] | 761 nM | 740 nM |  |  |  |
| CCCCN(CCCC)C(=O)S [compound 3] | 825 nM | 517 nM |  |  |  |
| CCOC(=O)CN(C)C(=O)S [compound 7, MTC 7] |  |  |  |  | 0.279 µM |
| O=C(S)NCCc1ccccc1 [compound 9, MTC 9] |  |  | 0.428 µM |  |  |
| O=C(S)N1CCN(c2ccc(F)cc2)CC1 [compound 14, MTC 14] |  |  | 0.195 µM | 0.417 µM | 0.149 µM |
| CCCN(CCC)C(=O)S [compound 4] | 799 nM | 550 nM |  |  |  |
| O=C(S)N1CCN(c2cccc(Cl)c2)CC1 [compound 15, MTC 15] |  |  | 0.3 µM | 0.367 µM | 0.214 µM |
| CC(C)CN(CC(C)C)C(=O)S [compound 2] | 890 nM | 665 nM |  |  |  |
